Results published in paper PMC6411751, “Use of machine learning to identify novel, behaviorally active antagonists of the insect odorant receptor co-receptor (Orco) subunit” (Scientific Reports, 2019).
Counter-ions that a name gives are not always drawn.

Legend:
[1] = tested on: ab2 sensilla (EA responsive OSN); assay: Single sensillum recording (SSR), ab2 sensilla, ethyl acetate response; assay type: in vivo, Drosophila melanogaster
Text: (§1) Adult flies (w1118 strain, 3–5 days old) were mounted in truncated pipette tips for detection of antennal responses[69],[70]. EAG data were obtained with an IDAC-232 (Syntech), which was linked to a computer via the EAGpro data acquisition interface. SSR data were acquired with an IDAC 4 and AutoSpike (Syntech). Recording and indifferent electrodes were made of silver/silver chloride wires enclosed in glass capillary needles, which were pulled with a Micropipette Puller (P-97, Sutter Instruments Co.) and filled with 1 M potassium chloride in 1% polyvinylpyrrolidone. The indifferent electrode was inserted in the eye of an immobilized fly, while the EAG recording electrode was placed on the third segment of the antenna under a S2X12 Olympus microscope and by using a micromanipulator MP-12 (Syntech). […] The total flow (continuous plus compensatory or continuous plus stimulus) of 0.6 mL/s was measured at the center of the outlet of the stimulus delivery tube with an Anemometer Lite (Model 6006, Kanomax, Osaka, Japan). […] Spikes were manually counted 0.5 s before and 0.5 s after stimulus and the results presented as poststimulus number of spikes per 0.5 s (number of spikes after stimulus minus number of spikes prior to stimulus). Data were analyzed with One Way ANOVA using Prism 7 (GraphPad).

fruit fly antennae = assay: Electroantennogram (EAG) recordings in adult flies; assay type: in vivo, Drosophila melanogaster; conditions: for amplitude of EAG responses to EA and 2 H: adult flies
Text: Adult flies (w1118 strain, 3–5 days old) were mounted in truncated pipette tips for detection of antennal responses[69],[70]. EAG data were obtained with an IDAC-232 (Syntech), which was linked to a computer via the EAGpro data acquisition interface. SSR data were acquired with an IDAC 4 and AutoSpike (Syntech). Recording and indifferent electrodes were made of silver/silver chloride wires enclosed in glass capillary needles, which were pulled with a Micropipette Puller (P-97, Sutter Instruments Co.) and filled with 1 M potassium chloride in 1% polyvinylpyrrolidone. The indifferent electrode was inserted in the eye of an immobilized fly, while the EAG recording electrode was placed on the third segment of the antenna under a S2X12 Olympus microscope and by using a micromanipulator MP-12 (Syntech). For SSR, the recording electrode was inserted into a desired sensillum under a stage microscope (BX51WI, Olympus) and using a Piezo Manipulator (PM10, World Precision Instrument). The stimulus delivery system consisted of a Stimulus Controller CS-55 (Syntech), which delivered charcoal-filtered, humidified air at 650 mL/min through a stimulus tube (5 cm long; internal diameter, 8 mm). The outlet of the stimulus delivery tube was set 1 cm away from the preparations. Stimulus pulses (0.5 sec) were introduced through a hole in the stimulus delivery tube 2.5 cm away from outlet. A compensatory flow was applied through another hole in the tube (directly across from the stimulus pulse hole). The total flow (continuous plus compensatory or continuous plus stimulus) of 0.6 mL/s was measured at the center of the outlet of the stimulus delivery tube with an Anemometer Lite (Model 6006, Kanomax, Osaka, Japan). 10 µL of the odorants EA and 2 H (freshly diluted to 0.01%, 0.1% or 1% in mineral oil) or the Orco antagonist compounds BMP and LF (freshly diluted to 1% or 50% in mineral oil) were loaded onto filter papers (1 cm^2). The filter papers containing odorants were placed inside of stimulus cartridges. Loading of odorant containing filter papers into the cartridges occurred in ambient air, which could contain trace amounts of odorants. Thus, stimulus pulses with ambient air (filter papers containing mineral oil alone) in the cartridges were used to define a baseline response. For EAG, filter papers containing BMP or LF (50% in mineral oil) were placed inside the main airflow tube 8 cm away from the antenna and odorants were delivered through a hole 2.5 cm away from the outlet. For SSR, BMP (1% in mineral oil) was delivered into the holes 2.5 cm away from the outlet, whereas the odorants were delivered upstream through a hole 4 cm away from the outlet. The different delivery arrangements may contribute to the difference in apparent BMP potency in the EAG and SSR experiments (Figs 6 and 7). Each filter paper was used 3–5 times before being replaced. CO2 was freshly collected into stimulus cartridge from the breath of the same subject (P.X.) and used only once. Spikes were manually counted 0.5 s before and 0.5 s after stimulus and the results presented as poststimulus number of spikes per 0.5 s (number of spikes after stimulus minus number of spikes prior to stimulus). Data were analyzed with One Way ANOVA using Prism 7 (GraphPad).

D. melanogaster larvae = assay: Larval chemotaxis assay (attraction to ethyl acetate); assay type: in vivo, Drosophila melanogaster; conditions: for larval preference, compound alone vs. mineral oil vehicle: 10 µL of 100 mM on plate filter
Description: We have previously provided a detailed description of these methods. Briefly, Canton-S (CS) flies were used as wild type (wt). The experimental chamber was a 100 × 15 mm polystyrene Petri dish (VWR) with 20 mL of 1.1% agarose coating the bottom. In this assay, 50 third-instar larvae were placed inside a “starting circle” at the center of the plate (the circle was drawn on the outside bottom of the plate). A line was also drawn that divided the plate in half. Small filter paper discs (d = 6 mm, Whatman Cellulose Filter Paper, # 1030 023) were placed on opposite sides of the plate (see Fig. 8A). Onto each filter paper disc was placed 10 μL of solution, containing either vehicle of dilution (mineral oil), odorant attractant (EA, diluted in mineral oil) or an Orco antagonist compound (diluted in mineral oil). The sides of the plate on which the compounds or vehicle were placed were alternated from experiment to experiment.
In order to test Orco antagonists for the ability to affect the chemotaxis assay, a large (d = 9 cm) filter paper (Whatman Filter Paper # D00161-S) was adhered with double-sided tape to the inside of the Petri dish lid. This allowed the larvae to be exposed to Orco antagonists in an airborne context. For light repulsion experiments, we used a Zeiss CL6000 LED light source at 76% intensity. Following the 5 min migratory period, plates were photographed, coded and then blind counted. Any larvae still within the starting circle or touching the center line were excluded from the analysis. A Response Index (RI) was calculated as RI = (S − C)/(S + C), where S is the number of larvae on the stimulus (EA) side and C is the number of larvae on the control (mineral oil) side. RI = 1 would indicate complete attraction, RI = −1 would indicate complete repulsion, and RI = 0 would indicate no preference. Statistical significance was assessed using a one-way analysis of the variance followed by Dunnett’s’s post-test.

[2] = tested on: sham (water) injected oocytes; assay: Application of Orco antagonists to sham (water) injected oocytes; assay type: cell-based, Xenopus laevis; conditions: 3 mM
Description: To measure antagonist activity at Orco, Agam\Orco was activated by the Orco agonist OLC12[34]. Following two successive 60 sec applications of 30 μM OLC12, with 5 min washes between applications, each antagonist candidate was applied for 90 sec, immediately followed by a 60 sec co-application of antagonist candidate and OLC12. The 90 sec application of each compound alone (prior to co-application of the compound and OLC12) allowed us to ensure that antagonist candidate compounds were not causing non-specific effects on the oocytes that might confound the results. The current response to OLC12 in the presence of antagonist candidate was compared to the mean of the preceding two responses to OLC12 alone and presented as a percentage[34],[35]. This value was then normalized to the value obtained when the assay was run in the absence of antagonist candidate (sham).
Figure S2. Applic a tion of Orco antagonists to s ha m (wa ter) injected oocytes.
Up p e r tra ce, current recording from a sham (water) injected oocyte that was challenged with 60 sec applications of 100 µM an d 1 mM 3-isopropyl-6-methyl-ca t e ch o l (3 I6MC). Representative of recordings from 4 oocytes. Lo we r trace, current recording from a sham (water) injected oocyte that was challenged with 60 sec applications of 3 mM 2-tert-butyl-6-methylphenol (BMP) and linalyl formate (LF). Representative of recordings […]

[3] = tested on: ab1 sensilla (CO2 responsive OSN, Gr21 and Gr63a); assay: Single sensillum recording (SSR), ab1 sensilla, CO2 response; assay type: in vivo, Drosophila melanogaster; conditions: 10 µL of 1% compound in mineral oil
Text: as §1

[4] = 10 µL of 50% compound in mineral oil in main airflow

Structure (SMILES)	SSR response of ab2 sensilla to EA ([1]; 10 µL of 1% compound in mineral oil, 0.1% EA)	reversibility of effect on ab2 EA response ([1]; subsequent response to EA alone)	baseline EAG response to ambient air (fruit fly antennae; [4])	amplitude of EAG responses to EA and 2 H (fruit fly antennae; [4])	extent of inhibition of EAG responses across 0.01%, 0.1%, 1% 2H (fruit fly antennae; 50% BMP in main airflow, n = 3)	extent of inhibition of EAG responses across 0.01%, 0.1%, 1% EA (fruit fly antennae; 50% BMP in main airflow, n = 3)	odorant agonist activity in EAG (fruit fly antennae; compound alone)	larval attraction to EA with airborne compound (D. melanogaster larvae; 30 mM on lid filter)	larval preference, compound alone vs. mineral oil vehicle (D. melanogaster larvae)	larval attraction to EA with airborne compound (D. melanogaster larvae; 685 µL of 100 mM on lid filter)	non-specific effects on sham (water) injected oocytes [2]	SSR response of ab1 sensilla to CO2 [3]
Cc1cccc(C(C)(C)C)c1O [BMP, 2-tert-butyl-6-methylphenol]	abolished the response	reversible	significantly reduced the baseline response	significantly reduced the amplitude	did not differ	did not differ	did not act as an odorant agonist	did not significantly affect attraction to EA	displayed no preference	completely abolished larval attraction to EA	Neither BMP or LF exerted any non-specific effects	had no effect on the CO2 response
C=CC(C)(CCC=C(C)C)OC=O (centres unmarked) [LF, linalyl formate]				did not alter the amplitude				significantly reduce larval attraction to EA	displayed no preference	completely abolished larval attraction to EA	Neither BMP or LF exerted any non-specific effects	
